Measured values: patent publication US20050182140A1, “Antimicrobial compositions” (Microban Products Company, priority 2003, published 2005)

Columns and labels:
Format in all cases: cell-based
[1] = system: K. pneumoniae; assay: AATCC Test Method 147, treated cotton samples (Examples 2 and 4); conditions: Example 2; agent at 900 ppm; cotton laundered 50 times
Method: (§1) The efficacy of Emulsion A in cotton sample material was tested, alone and in combination with other agents. The AATCC Test Method 147, which is a known bacterial test method for textiles, was followed. The sample size of the cotton was a 25 mm×75 mm rectangle. The growth medium was Nutrient Agar. Prior to treatment, the cotton was steam sterilized at 121° C. The samples were incubated at 37° C.±2° C. for 18 to 24 hours. The samples were each laundered 50 times prior to doing the micro testing unless indicated to the contrary. NZ means that no zone of inhibition surrounded the sample. NI means that there was no inhibition of growth under the sample (if observable). The zone of inhibition was reported in millimeters.
(§2) The efficacy of Emulsion A in cotton sample material was tested, alone and in combination with other agents. The AATCC Test Method 147, which is a known test method, was followed. The sample size of the cotton was 25 mm×75 mm rectangle. The growth medium was Nutrient Agar. Prior to treatment, the cotton was steam sterilized at 121° C. The samples were incubated at 37° C.±2° C. for 18 to 24 hours. The samples were each laundered 50 times unless indicated to the contrary. NZ means that no zone of inhibition surrounded the sample. NI means there was no inhibition of growth under the sample (if observable). The zone of inhibition was reported in millimeters.

[2] = system: S. aureus 6538; assay: as above; conditions: Example 2; agent at 900 ppm; cotton laundered 50 times
Method: as §1, §2

[3] = system: K. pneumoniae; assay: Kirby Bauer Test Method, treated cotton samples (Example 3); conditions: agent at 800 ppm with R10800 at 0.67% and USV at 0.33%, cotton laundered 50 times
Method: (§3) The efficacy of Emulsion A in cotton sample material was tested, alone and in combination with other agents. The Kirby Bauer Test Method, which is a known bacterial test method, was followed. The sample size of the cotton was 38.1 mm×38.1 mm (1.5 inches×1.5 inches) square. The growth medium was Mueller-Hinton Agar. Prior to treatment, the cotton was steam sterilized at 121° C. The samples were pre-wet with sterile deionized water. The samples were incubated at 37° C.±2° C. for 18 to 24 hours. The samples were each laundered 50 times unless indicated to the contrary. NZ means that no zone of inhibition surrounded the sample. NI means that there was no inhibition of growth under the sample (if observable). The zone of inhibition was reported in millimeters.
(§4) Note that the percentages of R10800 and USV represent target loading levels on the cotton samples.

[4] = system: S. aureus 6538; assay: as above; conditions: agent at 800 ppm with R10800 at 0.67% and USV at 0.33%, cotton laundered 50 times
Method: as §3, §4

Zinc pyrithione [Zinc pyrithione (FPS dispersion)]
Size of Zone [1]: 0 mm
Zone Results [1]: NZ/NI
Size of Zone [2]: 2 mm
Size of Zone [3]: 0 mm
Zone Results [3]: NZ/NI
Size of Zone [4]: 0 mm
Zone Results [4]: NZ/I

O=C(Nc1ccc(Cl)cc1)Nc1ccc(Cl)c(Cl)c1 [Triclocarban]
Size of Zone [3]: 0 mm
Zone Results [3]: NZ/NI
Size of Zone [4]: 0 mm
Zone Results [4]: NZ/NI

Oc1ccccc1-c1ccccc1 [Ortho-phenyl phenol]
Size of Zone [3]: 0 mm
Zone Results [3]: NZ/NI
Size of Zone [4]: 0 mm
Zone Results [4]: NZ/NI
